Reference: US7300941B2, “Non-imidazole compounds” (Schering Corporation, priority 2000, dated 2007)
Where “and” joins values, the source holds several entries; their conditions need not be identical. Equal values may be shown once.

Target: T1, H3 receptors (Cavia porcellus, UniProt Q9JI35)
T1 construct: The brain tissue was homogenized with a solution of 50 mM Tris, pH 7.5; from tissue; host or cells: guinea pig brain membranes
Experiment: H3-Receptor Binding Assay
Settings: guinea pig brain membranes; 3 nM [3H]R-α-methyl histamine or 3 nM [3H]Nα-methyl histamine; 30° C., 30 min
Method: H3-Receptor Binding Assay
The source of the H3 receptors in this experiment was guinea pig brain. The animals weighed 400-600 g. The brain tissue was homogenized with a solution of 50 mM Tris, pH 7.5. The final concentration of tissue in the homogenization buffer was 10% w/v. The homogenates were centrifuged at 1,000×g for 10 min. in order to remove clumps of tissue and debris. The resulting supernatants were then centrifuged at 50,000×g for 20 min. in order to sediment the membranes, which were next washed three times in homogenization buffer (50,000×g for 20 min. each). The membranes were frozen and stored at −70° C. until needed.
All compounds to be tested were dissolved in DMSO and then diluted into the binding buffer (50 mM Tris, pH 7.5) such that the final concentration was 2 μg/ml with 0.1% DMSO. Membranes were then added (400 μg of protein) to the reaction tubes. The reaction was started by the addition of 3 nM [^3H]R-α-methyl histamine (8.8 Ci/mmol) or 3 nM [^3H]N^α-methyl histamine (80 Ci/mmol) and continued under incubation at 30° C. for 30 min. Bound ligand was separated from unbound ligand by filtration, and the amount of radioactive ligand bound to the membranes was quantitated by liquid scintillation spectrometry. All incubations were performed in duplicate and the standard error was always less than 10%. Compounds that inhibited more than 70% of the specific binding of radioactive ligand to the receptor were serially diluted to determine a Ki (nM).

T1 sequence (Q9JI35 whole entry): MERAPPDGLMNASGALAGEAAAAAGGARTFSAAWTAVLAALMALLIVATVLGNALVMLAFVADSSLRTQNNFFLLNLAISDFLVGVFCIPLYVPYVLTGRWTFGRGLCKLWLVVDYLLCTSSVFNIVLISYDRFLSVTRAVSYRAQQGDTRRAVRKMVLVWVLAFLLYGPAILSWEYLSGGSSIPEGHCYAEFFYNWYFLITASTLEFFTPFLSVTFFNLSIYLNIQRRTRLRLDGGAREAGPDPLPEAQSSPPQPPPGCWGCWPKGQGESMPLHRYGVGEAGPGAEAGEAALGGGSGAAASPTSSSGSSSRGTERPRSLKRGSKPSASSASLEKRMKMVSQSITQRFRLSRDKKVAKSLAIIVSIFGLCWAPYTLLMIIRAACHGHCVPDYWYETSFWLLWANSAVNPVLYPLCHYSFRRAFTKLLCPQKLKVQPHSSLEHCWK

Compound	Ki
CO/N=C(/c1ccccn1)C1CN(C(=O)C2CCN(Cc3ccnc(N)c3)CC2)C1 [Compound 301]	0.25 to 33 nM and 0.25 to 16 nM
CON=C(c1ncccn1)C1CCN(C(=O)C2CCN(Cc3ccnc(N)c3)CC2)CC1 [Compound 248]	0.25 to 33 nM
CO/N=C(/c1ccccn1)C1CCN(C(=O)C2CCN(Cc3ccnc(N)c3)CC2)CC1 [Compound 32]	0.25 to 33 nM and 0.25 to 16 nM and 0.83 nM
CON=C(c1csc(C)n1)C1CCN(C(=O)C2CCN(Cc3ccnc(N)c3)CC2)CC1 [Compound 253]	0.25 to 33 nM
Nc1cc(CN2CCC(C(=O)N3CCC(c4noc5cc(F)ccc45)CC3)CC2)ccn1 [Compound 23]	0.25 to 33 nM
CON=C(c1cccc(S(=O)(=O)N(C)C)c1)C1CCN(C(=O)C2CCN(Cc3ccnc(N)c3)CC2)CC1 [Compound 251]	0.25 to 33 nM
CON=C(c1ccc(Cl)cc1)C1CCN(C(=O)C2CCN(C(C)c3ccnc(N)c3)CC2)CC1 (stereo not drawn) [Compound 227]	0.25 to 33 nM
CON=C(c1ccccc1F)C1CCN(C(=O)C2CCN(Cc3ccnc(N)c3)CC2)CC1 [Compound 219]	0.25 to 33 nM
Nc1cc(CN2CCC(C(=O)N3CCC(C(=O)c4ccc5ccccc5n4)CC3)CC2)ccn1 [Compound 312]	0.25 to 33 nM and 0.25 to 16 nM
CO/N=C(/c1ccc(Cl)cc1)C1CCN(C(=O)C2CCN(Cc3ccncc3)CC2)CC1 [Compound 273]	0.25 to 16 nM
CON=C(c1ccsc1)C1CCN(C(=O)C2CCN(Cc3ccnc(N)c3)CC2)CC1 [Compound 235]	0.25 to 33 nM
CON=C(c1ccc(Cl)cc1Cl)C1CCN(C(=O)C2CCN(C(C)c3ccnc(N)c3)CC2)CC1 (stereo not drawn) [Compound 233]	0.25 to 33 nM
Nc1cc(CN2CCC(C(=O)N3CCC(C(=NO)c4ccccn4)CC3)CC2)ccn1 [Compound 237]	0.25 to 33 nM and 0.25 to 16 nM
CO/N=C(\c1ccccn1)C1CCN(C(=O)C2CCN([C@H](C)c3ccnc(N)c3)CC2)CC1 [Compound 57A]	0.25 to 33 nM
CCO/N=C(/c1ccccn1)C1CCN(C(=O)C2CCN(Cc3ccnc(N)c3)CC2)CC1 [Compound 246A]	0.25 to 33 nM and 0.25 to 16 nM
CO/N=C(/c1csc(C)n1)C1CCN(C(=O)C2CCN(Cc3ccnc(N)c3)CC2)CC1 [Compound 253A]	0.25 to 33 nM and 0.25 to 16 nM and 1.05 to 9.75 nM
CON=C(c1ccc(Cl)cc1)C1CCN(C(=O)C2(O)CCN(Cc3ccnc(N)c3)CC2)CC1 [Compound 59]	0.25 to 33 nM
CON=C(c1ccc(Cl)cc1)C1CCN(C(=O)C2CCN(Cc3ccnc(N)c3)CC2)CC1 [Compound 280]	0.25 to 16 nM
CON=C(c1ccc[n+]([O-])c1)C1CCN(C(=O)C2CCN(Cc3ccnc(N)c3)CC2)CC1 [Compound 92]	0.25 to 33 nM
CCON=C(c1ccc(F)cc1F)C1CCN(C(=O)C2CCN(Cc3ccnc(N)c3)CC2)CC1 [Compound 229]	0.25 to 33 nM
CO/N=C(\c1ccccn1)C1CCN(C(=O)C2CCN(Cc3ccnc(N)c3)CC2)CC1 [Compound 33]	0.25 to 33 nM and 0.25 to 16 nM

Compound	Ki
CON=C(c1ccc(Cl)cc1)C1CCN(C(=O)N2CCN(Cc3ccnc(N)c3)CC2)CC1 [Compound 215]	0.25 to 33 nM
CO/N=C(\c1ccc(Cl)cc1)C1CCN(C(=O)C2CCN(Cc3ccnc(N)c3)CC2)CC1 [Compound 224]	0.25 to 33 nM
Nc1cc(CN2CCC(C(=O)N3CCC(c4noc5ncccc45)CC3)CC2)ccn1 [Compound 247]	0.25 to 33 nM
Nc1cc(CN2CCC(C(=O)N3CCC(C(=O)c4ccccn4)CC3)CC2)ccn1 [Compound 30]	0.25 to 33 nM and 0.25 to 16 nM
CO/N=C(/c1ccccn1)C1CCN(C(=O)C2CCN([C@H](C)c3ccnc(N)c3)CC2)CC1 [Compound 55]	0.25 to 33 nM and 0.25 to 16 nM and 1.05 to 9.75 nM
CO/N=C(/c1ccccn1)C1CCN(C(=O)C2CCN([C@@H](C)c3ccnc(N)c3)CC2)CC1 [Compound 54]	0.25 to 33 nM and 0.25 to 16 nM and 1.05 to 9.75 nM
CON=C(c1ccccc1)C1CCN(C(=O)C2CCN(Cc3ccnc(N)c3)CC2)CC1 [Compound 238]	0.25 to 33 nM
O=C(C1CCN(Cc2ccncc2)CC1)N1CCC(/C(=N\O)c2ccc(F)cc2)CC1 [Compound 275]	0.25 to 33 nM
CON=C(c1ccccc1Cl)C1CCN(C(=O)C2CCN(Cc3ccnc(N)c3)CC2)CC1 [Compound 220]	0.25 to 33 nM
CO/N=C(/c1ccccn1)C1CCN(C(=O)C2CCN(Cc3cnc(N)nc3)CC2)CC1 [Compound 287]	0.25 to 33 nM and 0.25 to 16 nM and 1.05 to 9.75 nM
Nc1cc(CN2CCC(C(=O)N3CCC(/C(=N\OCC(F)(F)F)c4ncccc4F)CC3)CC2)ccn1 [Compound 320]	1.05 to 9.75 nM
CON=C(c1cc(Cl)cc(Cl)c1)C1CCN(C(=O)C2CCN(Cc3ccnc(N)c3)CC2)CC1 [Compound 218]	0.25 to 33 nM
CO/N=C(/c1ccc(C(F)(F)F)cc1)C1CCN(C(=O)C2CCN(Cc3ccnc(N)c3)CC2)CC1 [Compound 226]	0.25 to 33 nM
CCON=C(c1ccc(Cl)cc1)C1CCN(C(=O)C2CCN(Cc3ccnc(N)c3)CC2)CC1 [Compound 212]	0.25 to 33 nM
CON=C(c1ccccn1)C1CCN(C(=O)C2CCN(Cc3ccnc(N)c3)CC2)CC1 [Compound 31]	0.25 to 33 nM and 0.25 to 16 nM
CCON=C(c1ccccn1)C1CCN(C(=O)C2CCN(Cc3ccnc(N)c3)CC2)CC1 [Compound 246]	0.25 to 33 nM
CON=C(c1ccccn1)C1CCN(C(=O)C2CCN(Cc3ccncc3N)CC2)CC1 [Compound 296]	0.25 to 33 nM and 0.25 to 16 nM
CON=C(c1ccccn1)C1CCN(C(=O)C2CCN(C(C)c3ccnc(N)c3)CC2)CC1 (stereo not drawn) [Compound 53]	0.25 to 33 nM
CO/N=C(\c1ccccn1)C1CCN(C(=O)C2CCN([C@@H](C)c3ccnc(N)c3)CC2)CC1 [Compound 56]	0.25 to 33 nM and 0.25 to 16 nM
CON=C(C1CCCCC1)C1CCN(C(=O)C2CCN(Cc3ccnc(N)c3)CC2)CC1 [Compound 309]	0.25 to 33 nM and 0.25 to 16 nM
CO/N=C(/c1ccc(Cl)cc1)C1CCN(C(=O)C2CCN(Cc3ccnc(N)c3)CC2)CC1 [Compound 225]	0.25 to 33 nM and 0.25 to 16 nM
